pIC50, pKd: −log10 of the molar value. The source made the active and inactive calls. The calls are words filed in the database; no cut-off is given here.
How the values were obtained:
U-87MG ATCC = assay: Effect on total ERK1/2 level in human U-87 MG cells at 0.25 to 2 uM incubated for 48 hrs by Western blot analysis; assay type: functional, cell-based; details: dose 0.25-2 µM
U-87 MG [1] = assay: Induction of cell cycle arrest in human U-87 MG cells assessed as accumulation of cells at G0/G1 phase at 1 uM incubated for 48 hrs by flow cytometry (reference value: 60.51%); assay type: functional, U-87MG ATCC
U-87 MG [2] = assay: Induction of cell cycle arrest in human U-87 MG cells assessed as decrease in accumulation of cells at S phase at 1 uM incubated for 48 hrs by flow cytometry (reference value: 30.36%); assay type: functional, U-87MG ATCC; parameters: scale not given: the % may be the effect or the level left
U-87 MG [3] = assay: Induction of cell cycle arrest in human U-87 MG cells assessed as decrease in accumulation of cells at S phase at 2 uM incubated for 48 hrs by flow cytometry (reference value: 30.36%); assay type: functional, U-87MG ATCC; parameters: scale not given: the % may be the effect or the level left
[4] = molecular target: Programmed cell death 1 ligand 1 (Mus musculus) (UniProt Q9EP73); assay: (§1) Binding affinity to recombinant mouse His-tagged PD-L1 expressed in HEK293 cells by SPR analysis
Chain of Programmed cell death 1 ligand 1 (Mus musculus) (Q9EP73 whole entry): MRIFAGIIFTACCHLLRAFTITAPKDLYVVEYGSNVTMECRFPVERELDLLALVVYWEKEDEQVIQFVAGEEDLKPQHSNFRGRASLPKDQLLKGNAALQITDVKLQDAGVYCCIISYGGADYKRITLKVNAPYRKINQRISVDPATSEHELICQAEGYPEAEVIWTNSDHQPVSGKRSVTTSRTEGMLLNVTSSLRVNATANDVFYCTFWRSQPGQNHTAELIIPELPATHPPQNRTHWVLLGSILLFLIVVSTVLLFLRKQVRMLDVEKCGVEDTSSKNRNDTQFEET

[5] = molecular target: Programmed cell death 1 ligand 1 (Mus musculus, UniProt Q9EP73); assay: as §1
Chain of Programmed cell death 1 ligand 1 (Q9EP73 whole entry): as above

U-87 MG [6] = assay: Cytotoxicity activity against human U-87 MG cells assessed as cell viability at 0.5 uM incubated for 48 hrs by CCK-8 assay relative to control; assay type: functional, U-87MG ATCC; details: read-out: Activity
[7] = AUC (0 to t) in Sprague-Dawley rat at 4 mg/kg, iv measured upto 72 hrs by (LC-MS)/MS analysis; assay type: ADME, organism-based; details: in vivo
[8] = AUC (0 to infinity) in Sprague-Dawley rat at 4 mg/kg, iv measured upto 72 hrs by (LC-MS)/MS analysis; assay type: ADME, organism-based; details: in vivo
[9] = MRT (0 to t) in Sprague-Dawley rat at 4 mg/kg, iv measured upto 72 hrs by (LC-MS)/MS analysis; assay type: ADME, organism-based; details: in vivo
[10] = MRT (0 to infinity) in Sprague-Dawley rat at 4 mg/kg, iv measured upto 72 hrs by (LC-MS)/MS analysis; assay type: ADME, organism-based; details: in vivo
[11] = Half life in Sprague-Dawley rat at 4 mg/kg, iv measured upto 72 hrs by (LC-MS)/MS analysis; assay type: ADME, organism-based; details: in vivo
[12] = Volume of distribution in Sprague-Dawley rat at 4 mg/kg, iv measured upto 72 hrs by (LC-MS)/MS analysis; assay type: ADME, organism-based; details: in vivo
[13] = AUC (0 to t) in Sprague-Dawley rat at 20 mg/kg, po measured upto 72 hrs by (LC-MS)/MS analysis; assay type: ADME, organism-based; details: in vivo
[14] = AUC (0 to infinity) in Sprague-Dawley rat at 20 mg/kg, po measured upto 72 hrs by (LC-MS)/MS analysis; assay type: ADME, organism-based; details: in vivo
[15] = MRT (0 to t) in Sprague-Dawley rat at 20 mg/kg, po measured upto 72 hrs by (LC-MS)/MS analysis; assay type: ADME, organism-based; details: in vivo
[16] = Half life in Sprague-Dawley rat at 20 mg/kg, po measured upto 72 hrs by (LC-MS)/MS analysis; assay type: ADME, organism-based; details: in vivo
[17] = Tmax in Sprague-Dawley rat at 20 mg/kg, po measured upto 72 hrs by (LC-MS)/MS analysis; assay type: ADME, organism-based; details: in vivo
[18] = Oral bioavailability in Sprague-Dawley rat at 20 mg/kg measured upto 72 hrs by (LC-MS)/MS analysis; assay type: ADME, organism-based; details: in vivo
[19] = Ratio of brain to plasma concentration in Sprague-Dawley rat at 5 mg/kg, iv measured after 20 mins; assay type: ADME, organism-based
[20] = Toxicity in C57BL/6 mouse xenografted with […] GL261 cells assessed as body weight loss at 50 to 100 mg/kg, IG treated for 21 days; assay type: organism-based; details: in vivo, po, 504 h, dose 50-100 mg/kg, time 21 day
[21] = Toxicity in C57BL/6 mouse xenografted with […] GL261 cells assessed as adverse effect at 50 to 100 mg/kg, IG treated for 21 days; assay type: organism-based; details: in vivo, po, 504 h, dose 50-100 mg/kg, time 21 day
GL261 = assay: In vivo antitumor activity against […] GL261 cells xenografted in intragastrically dosed C57BL/6 mouse assessed as decrease in tumor size treated for 21 days relative to control; assay type: functional, organism-based; details: route ig, time 21.0 day
[22] = In vivo antitumor activity against […] GL261 cells xenografted in C57BL/6 mouse assessed as decrease in tumor weight at 100 mg/kg, IG treated for 21 days relative to control; assay type: functional; parameters: scale not given: the % may be the effect or the level left; details: time 21 day
[23] = In vivo antitumor activity against […] GL261 cells xenografted in C57BL/6 mouse assessed as decrease in tumor volume at 100 mg/kg, IG treated for 21 days relative to control; assay type: functional; parameters: scale not given: the % may be the effect or the level left; details: time 21 day
[24] = In vivo antitumor activity against […] GL261 cells xenografted in C57BL/6 mouse assessed as tumor growth inhibition (tumor weight decrease) at 50 mg/kg, IG treated for 21 days relative to control; assay type: functional; details: GL261, po, 504 h, time 21 day, read-out: TGI
[25] = In vivo antitumor activity against […] GL261 cells xenografted in C57BL/6 mouse assessed as tumor growth inhibition (tumor volume decrease) at 50 mg/kg, IG treated for 21 days relative to control; assay type: functional; details: GL261, po, 504 h, time 21 day, read-out: TGI
[26] = In vivo antitumor activity against […] GL261 cells xenografted in C57BL/6 mouse assessed as tumor growth inhibition (tumor volume decrease) at 100 mg/kg, IG treated for 21 days relative to control; assay type: functional; details: GL261, po, 504 h, time 21 day, read-out: TGI
[27] = In vivo antitumor activity against […] GL261 cells xenografted in C57BL/6 mouse assessed as decrease in PD-L1 expression in tumor tissue at 100 mg/kg, IG treated for 21 days relative to control; assay type: functional; parameters: scale not given: the % may be the effect or the level left; details: time 21 day
[28] = Toxicity in C57BL/6 mouse xenografted with […] GL261 cells assessed as cell necrosis in heart at 100 mg/kg, IG treated for 21 days by hematoxylin-eosin staining based microscopy assay; assay type: organism-based; details: in vivo, po, 504 h, time 21 day
[29] = Toxicity in C57BL/6 mouse xenografted with […] GL261 cells assessed as cell necrosis in spleen at 100 mg/kg, IG treated for 21 days by hematoxylin-eosin staining based microscopy assay; assay type: organism-based; details: in vivo, po, 504 h, time 21 day
[30] = Toxicity in C57BL/6 mouse xenografted with […] GL261 cells assessed as cell necrosis in lung at 100 mg/kg, IG treated for 21 days by hematoxylin-eosin staining based microscopy assay; assay type: organism-based; details: in vivo, po, 504 h, time 21 day
Glioblastoma cell line = assay: Antitumor immunity against glioblastoma bearing C57BL/6 mouse model assessed as tumor infiltrating lymphocytes by measuring increase in CD3+CD4+T cells at 100 mg/kg, IG (reference value: 0.91%); assay type: functional
U-87 MG [31] = assay: In vitro immunoregulatory effect in IFN-gamma stimulated human U-87 MG cells co-cultured with PHA-P stimulated with human Jurkat T cell assessed as cytotoxicity by measuring cell viability incubated for 48 hrs by CCK-8 assay relative to control; assay type: functional, cell-based; details: U-87MG ATCC, dose 0.0625-0.5 µM
U-87 MG [32] = assay: cells; details: Homo sapiens, 72 h
Description: Antiproliferative activity against human U-87 MG cells incubated for 72 hrs by MTT assay

U-251 = assay: cells; details: Homo sapiens, U-251, 72 h
Description: Antiproliferative activity against human U-251 cells incubated for 72 hrs by MTT assay

cells [33] = details: GL261, 72 h
Description: Antiproliferative activity against human GL261 cells incubated for 72 hrs by MTT assay

cells [34] = details: Homo sapiens, U87MG Human EGFR vIII, 72 h
Description: Antiproliferative activity against human U87vIII cells expressing EGFRvIII incubated for 72 hrs by MTT assay

COc1cc2ncnc(Nc3cccc(Cl)c3F)c2cc1OCCCCNCc1c(OC)cc(OCc2cccc(-c3ccccc3)c2C)cc1OC
Activity (U-87MG ATCC): inactive
Activity (U-87 MG [1]): 69.48%
Activity (U-87 MG [2]): 22.89%
Activity (U-87 MG [3]): 16.72%
Activity [4]: Dose-Dependent Effect
pKd [5]: 6.28
viability at 0.5 µM (U-87 MG [6]): 96.9%
AUC(0-t) at 72 h [7]: 2830 ng·h/mL
AUC(0-inf) [8]: 2910 ng·h/mL
MRT last at 72 h [9]: 12.7 h
MRT inf [10]: 12.5 h
half-life [11]: 6.8 h
Vd [12]: 13.7 L/kg
AUC(0-t) at 72 h [13]: 3150 ng·h/mL
AUC(0-inf) [14]: 3240 ng·h/mL
MRT last at 72 h [15]: 17.5 h
half-life [16]: 13 h
Tmax [17]: 3.6 h
bioavailability [18]: 22.2%
BPR [19]: 10%
Activity [20]: Non-Toxic
Activity [21]: Non-Toxic
Activity (GL261): Dose-Dependent Effect
Activity [22]: 92%
Activity [23]: 89.7%
inhibition in vivo at 50 mg/kg [24]: 61.4%
inhibition in vivo at 50 mg/kg [25]: 55.8%
inhibition in vivo at 100 mg/kg [26]: 89.4%
Activity [27]: ~30%
Activity [28]: Non-Toxic
Activity [29]: Non-Toxic
Activity [30]: Non-Toxic
Activity (Glioblastoma cell line): 3.74%
Activity (U-87 MG [31]): Dose-Dependent Effect
pIC50 (U-87 MG [32]): 6.11
pIC50 (U-251): 5.99
pIC50 (cells [33]): 5.92
pIC50 (cells [34]): 6.55

Source: ChEMBL document CHEMBL5506049, “Discovery of Novel Small-Molecule-Based Potential PD-L1/EGFR Dual Inhibitors with High Druggability for Glioblastoma Immunotherapy” (J Med Chem, 2024)
